According to patent US12428428B2, “Tricyclic tetrahydroisoquinoline derivative, preparation method therefor and application thereof in medicine” (JIANGSU HENGRUI MEDICINE CO., LTD., priority 2020, dated 2025):

Columns and labels:
Format in all cases: cell-based
ER (estrogen receptor) = ER (estrogen receptor) (Homo sapiens (Human), UniProt P03372); experiment: Inhibition of binding of E to ER (MCF-7/ERE-luciferase reporter cells); settings: MCF-7/ERE-luciferase cells, 0.1 nM estradiol, 24 h
Description: The compounds of the present disclosure can inhibit the binding of E (estrogen) to ER (estrogen receptor), thereby blocking the binding of the complex of E and ER to ERE (estrogen response element), and consequently the expression of downstream luciferase proteins. The inhibitory effects of the compounds of the present disclosure on the binding of E to ER was tested by using the following method.
An ERE was cloned upstream of the luciferase gene, and MCF-7/ERE-luciferase monoclonal cells were selected by transfection of MCF-7 (TCHu74, National Collection of Authenticated Cell Cultures). The MCF-7/ERE-luciferase cells were seeded into a 96-well plate with an MEM (hyclone, SH30024.01B) medium containing 10% charcoal stripped FBS (Moregate, FBSF), 1% sodium pyruvate (sigma, S8636), 1% non-essential amino acids (sigma, M7145) and 500 μg/mL G418 at a density of 30,000 cells/well and cultured at 37° C. with 5% CO2. 20 mM stock solutions of the drugs are prepared, serially diluted 10-fold with 100% DMSO, and then diluted 20-fold with the medium. After the cells were cultured for 24 h, the medium was removed. 0.1 nM estradiol (sigma, E2758) and 10 μL of a medium-diluted drug were added to each well, and DMSO was added to the control group. The mixtures were well mixed by gentle shaking. The cells were cultured in an incubator at 37° C. with 5% CO2 for 24 h, and then the cell culture liquid was removed, followed by the addition of 50 μL of a luciferase substrate (Promega, E6110) to each well. The plate was let stand at room temperature in the dark for 10-15 min, and the chemiluminescence signal values were determined.
The inhibitory effects of the compounds of the present disclosure on the binding of E to ER were tested through the above experiment. The chemiluminescence signal value was plotted against the compound concentration (in log form) using Graphpad Prism, and the IC50 values of the compounds were obtained.

MCF-7 cells = experiment: Inhibition of proliferation of MCF-7 cells (ATP method, Cell Titer-Glo); settings: for IC50: Homo sapiens, MCF7, MCF-7 cells, 72 h; for inhibitory effects on the proliferation of MCF-7 cells (in words): conclusion
Description: This experiment was intended to test the inhibitory effects of the compounds disclosed herein on the proliferation of MCF-7 Cells by using the ATP method, and to evaluate the in vitro activity of the compounds according to the IC50 values.
MCF-7 cells (TCHu74, National Collection of Authenticated Cell Cultures) were seeded into a 96-well plate with an MEM (hyclone, SH30024.01B) medium containing 10% FBS (Gibco, 10099-141), 1% sodium pyruvate (sigma, 58636) and 1% non-essential amino acid (sigma, M7145) at a density of 4,000 cells/well and cultured at 37° C. with 5% CO2. 20 mM stock solutions of the compounds are prepared, serially diluted with 100% DMSO to a final concentration of 1000×, and then diluted 20-fold with a medium containing 2% FBS. After the cells were cultured for 24 h, the medium was removed. 90 μL of the medium containing 2% FBS and 10 μL of a drug were added to each well, and 10 μL of DMSO was added to the control group. The mixtures were well mixed by gentle shaking. The blank group contained only 100 μL of the medium containing 2% FBS. The cells were cultured in an incubator at 37° C. with 5% CO2 for 72 h, and then 50 μL of mixed Cell Titer-Glo (Promega, G7571) was added to each well. The mixtures were well mixed by shaking and let stand at room temperature for 10 min, and the chemiluminescence signal values were determined.
The chemiluminescence signal value was plotted against the compound concentration (in log form) using Graphpad Prism, and the IC50 values of the compounds were obtained.

ERα = ERα (Homo sapiens (Human), UniProt P03372); experiment: Degradation of ERα in MCF-7 cells (ELISA); settings: for DC50: MCF-7 cells, 16 to 18 h, read-out: EC50 (nM), degradation of ERα; for degradation of ERα (in words): conclusion
Chain of ERα (P03372 whole entry): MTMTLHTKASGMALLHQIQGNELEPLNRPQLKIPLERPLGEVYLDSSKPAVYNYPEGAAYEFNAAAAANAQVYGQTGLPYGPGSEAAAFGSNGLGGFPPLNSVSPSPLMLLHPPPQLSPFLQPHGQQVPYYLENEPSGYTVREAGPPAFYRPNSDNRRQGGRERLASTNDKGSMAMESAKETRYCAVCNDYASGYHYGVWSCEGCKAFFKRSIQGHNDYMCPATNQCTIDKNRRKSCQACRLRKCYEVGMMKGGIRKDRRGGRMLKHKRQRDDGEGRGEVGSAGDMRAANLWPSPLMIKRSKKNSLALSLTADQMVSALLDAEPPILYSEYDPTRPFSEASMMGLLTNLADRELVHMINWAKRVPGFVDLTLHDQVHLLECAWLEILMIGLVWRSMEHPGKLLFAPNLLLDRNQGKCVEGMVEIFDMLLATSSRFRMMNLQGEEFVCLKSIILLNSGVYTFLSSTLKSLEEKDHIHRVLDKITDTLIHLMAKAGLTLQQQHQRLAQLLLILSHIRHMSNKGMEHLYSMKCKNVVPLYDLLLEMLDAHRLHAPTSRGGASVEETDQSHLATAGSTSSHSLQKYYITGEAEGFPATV
Description: ERα-positive breast cancer cell line MCF-7 cells were cultured in a DMEM/F12 medium (HyClone, SH30023.01) containing 10% fetal bovine serum (Corning, 35-010-CV). […] The following day the compounds were serially diluted with DMSO and further diluted with the phenol red-free DMEM/F12 medium containing 5% charcoal-stripped fetal bovine serum. 20 μL of a diluted compound was added to each well of the 48-well plate at final concentrations of 3000, 300, 30, 3, 0.3, 0.03 and 0.003 nM. The 48-well plate was placed in the incubator for 16 to 18 h. A 96-well plate was coated with the capture antibody from the human ERα/NR3A1 total protein assay kit (R&D, DYC5715-5). […] The plate was placed in an incubator at 26° C. overnight. On day 3, the antibody-coated 96-well plate was washed once with PBS, and 200 μL of PBS containing 1% BSA was added to each well. The plate was incubated in an incubator at 37° C. for 1.5 h to be blocked. The cell culture medium supernatant was discarded. The cells were washed once with PBS, and 60 μL of a cell lysis buffer was added to each well. […] The cells were lysed on ice for 15 min, and 300 μL of PBS containing 1 mM EDTA and 0.5% TritonX-100 was added to each well to dilute the urea to 1 M. The blocking buffer in the blocked 96-well plate was discarded, and 100 μL of diluted cell lysis buffer was added to each well. The plate was incubated in an incubator at 37° C. for 2 h and washed 5 times with PBS. A biotinylated assay antibody was diluted to 0.4 μg/mL with PBS containing 1% BSA, and then 100 μL of the assay antibody was added to each well. The plate was incubated in an incubator at 37° C. for 1 h. The plate was then washed five more times, and 100 μL of avidin-HRP diluted 200-fold with PBS containing 1% BSA was added to each well. The plate was incubated at 37° C. for 30 min. The plate was washed five more times, and 100 μL of TMB substrate was added to each well. The plate was incubated at room temperature until blue color appeared, and 100 μL of stop solution was added to each well. OD450 signal values were read using a PHERAstar multi-mode microplate reader. The IC50 values for the inhibitory activity of the compounds were calculated using Graphpad Prism software.

Chain of ER (estrogen receptor) (P03372 whole entry): as above

| Structure (SMILES) | IC50 (ER (estrogen receptor)) | IC50 (MCF-7 cells) | inhibitory effects on the proliferation of MCF-7 cells (in words) (MCF-7 cells) | DC50 (ERα) | degradation of ERα (in words) (ERα) |
| --- | --- | --- | --- | --- | --- |
| C[C@@H]1Cc2cc3c(cc2[C@@H](c2ccc(NC4CN(CCCF)C4)cc2)N1CC(F)(F)F)OCO3 [Example 16, 1-(3-Fluoropropyl)-N-(4-((5R,7R)-7-methyl-6-(2,2,2-trifluoroethyl)-5,6,7,8-tetrahydro-[1,3]dioxolo[4,5-g]isoquinolin-5-yl)phenyl)azetidin-3-amine] | 0.27 nM |  |  |  |  |
| C[C@@H]1Cc2ccc3c(c2[C@@H](c2ccc(NC4CN(CCCF)C4)cn2)N1CC(F)(F)CO)C(=O)NC3=O [Example 20, (7R,9S)-8-(2,2-difluoro-3-hydroxypropyl)-9-(5-((1-(3-fluoropropyl)azetidin-3-yl)amino)pyridin-2-yl)-7-methyl-6,7,8,9-tetrahydro-1H-pyrrolo[3,4-h]isoquinoline-1,3(2H)-dione, reference compound] |  | > 10000 nM | no activity | > 10000 nM | no activity |
| C[C@@H]1Cc2ccc3c(=O)[nH][nH]c(=O)c3c2[C@@H](c2ccc(NC3CN(CCCF)C3)cn2)N1CC(F)(F)CO [Example 21, reference compound] |  | > 10000 nM | no activity | > 10000 nM | no activity |
